This is an account of results in PubChem BioAssay (NCI).

Some test systems named below: UACC-257 melanoma; OVCAR-8 ovarian; SK-MEL-5 melanoma; HCT-15 colon; MALME-3M melanoma; OVCAR-4 ovarian; LOX IMVI melanoma; SF-295 CNS; NCI-H522 lung; HL-60(TB) leukemia.
Holding throughout (experiment): NCI tumour cell line growth inhibition, 48 h

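These data come from cells grown in 96-well plates and exposed to compound for 48 hours at five concentrations. TGI: concentration producing complete growth inhibition.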

With `COC(=O)c1sc(=O)sc1SCc1cccc(CSc2sc(=O)sc2C(=O)OC)c1`, the TGI in the experiment on UACC-257 melanoma is greater than 100 µM; in the experiment with OVCAR-8 ovarian, greater than 100 µM; in the experiment on SK-MEL-5 melanoma, greater than 100 µM; in the experiment on HCT-15 colon, greater than 100 µM; with MALME-3M melanoma, 49.5 µM; with OVCAR-4 ovarian, 37.7 µM. Besides, the TGI with LOX IMVI melanoma, in the experiment on SF-295 CNS and with NCI-H522 lung was greater than 100 µM in each case.

`O=C(O)CSC(CC(=O)c1ccc(Cl)cc1)c1ccc(Cl)cc1` (centres undefined): the TGI was 53.3 µM in the experiment on UACC-257 melanoma; 57 µM in the experiment with OVCAR-8 ovarian; greater than 100 µM with SK-MEL-5 melanoma; greater than 100 µM in the experiment on HCT-15 colon; 7.45 µM in the experiment on HL-60(TB) leukemia; greater than 100 µM in the experiment with OVCAR-4 ovarian. Besides, the TGI with LOX IMVI melanoma is 40.1 µM; with SF-295 CNS it was greater than 100 µM; in the experiment on NCI-H522 lung, 45.3 µM.

With `Cc1c(C)c2c(c(N)c1C#N)C(=O)N(N)C2=O`, the TGI in the experiment on UACC-257 melanoma, in the experiment with OVCAR-8 ovarian, with SK-MEL-5 melanoma, in the experiment with HCT-15 colon, in the experiment with HL-60(TB) leukemia and in the experiment with MALME-3M melanoma was greater than 100 µM throughout. In addition, the TGI in the experiment on OVCAR-4 ovarian, in the experiment with SF-295 CNS and in the experiment with NCI-H522 lung was greater than 100 µM throughout.

`COc1ccc(-c2ccc(C(=O)C=P(c3ccccc3)(c3ccccc3)c3ccccc3)cc2)cc1`: the TGI came to 45.2 µM in the experiment with UACC-257 melanoma; 22.4 µM with SK-MEL-5 melanoma; 29.6 µM in the experiment on HCT-15 colon; 6.77 µM in the experiment on HL-60(TB) leukemia; 43.9 µM in the experiment on MALME-3M melanoma; 25 µM in the experiment with OVCAR-4 ovarian. Moreover, the TGI was determined as 31.5 µM in the experiment on LOX IMVI melanoma and 40.3 µM in the experiment on SF-295 CNS.

On to `CCC1(O)CC(CCN(Cc2ccccc2)C(=O)OCc2ccccc2)C(OCc2ccccc2)C1O` (centres undefined), for which the TGI in the experiment with UACC-257 melanoma turned out to be 34.7 µM; in the experiment with OVCAR-8 ovarian, 30.1 µM; in the experiment with SK-MEL-5 melanoma it was 30.9 µM; in the experiment on HCT-15 colon, 31.7 µM; with OVCAR-4 ovarian, 22 µM; in the experiment on LOX IMVI melanoma, 86.7 µM. Moreover, the TGI in the experiment on SF-295 CNS worked out at 28.2 µM; in the experiment with NCI-H522 lung, 23.5 µM.

On to `CC(C)(C)C(=O)Nc1c(C=O)ccc2[nH]cnc12`, for which the TGI in the experiment on UACC-257 melanoma, in the experiment on OVCAR-8 ovarian, in the experiment with SK-MEL-5 melanoma, with HCT-15 colon, in the experiment on OVCAR-4 ovarian and with LOX IMVI melanoma was greater than 100 µM in each case. For the same molecule, the TGI in the experiment on SF-295 CNS and in the experiment on NCI-H522 lung was greater than 100 µM in each case.

For `CC(Nc1ccc(Cl)cc1)c1ccncc1` (centres undefined), the TGI in the experiment with UACC-257 melanoma, in the experiment with OVCAR-8 ovarian, with SK-MEL-5 melanoma, in the experiment with HCT-15 colon, in the experiment with MALME-3M melanoma and with OVCAR-4 ovarian was greater than 100 µM throughout. Further, the TGI in the experiment with LOX IMVI melanoma, in the experiment with SF-295 CNS and in the experiment on NCI-H522 lung was greater than 100 µM in each case.

`CCOC(=O)c1c(N)sc2c1C(C(=O)OCC)CCCC2` (centres undefined): the TGI with UACC-257 melanoma, in the experiment on OVCAR-8 ovarian, in the experiment with SK-MEL-5 melanoma, in the experiment on HCT-15 colon, in the experiment on HL-60(TB) leukemia and in the experiment with MALME-3M melanoma was greater than 100 µM each time.

For `COc1ccc(N2C(=O)C3c4[nH]c5c(C)cccc5c4C4CCC(C(C)C)CC4C3C2=O)cc1` (centres undefined), the TGI was greater than 100 µM in the experiment on UACC-257 melanoma; 42.9 µM in the experiment with OVCAR-8 ovarian; greater than 100 µM in the experiment on SK-MEL-5 melanoma; 40.6 µM with HCT-15 colon; 36.8 µM in the experiment on MALME-3M melanoma; 42.3 µM in the experiment on OVCAR-4 ovarian. For the same molecule, the results for the TGI with LOX IMVI melanoma, in the experiment with SF-295 CNS and in the experiment with NCI-H522 lung were 19.3 µM, 38.3 µM and 27.2 µM, respectively.

Consider `CCOc1ccc2nc(NC(=O)C(=O)C(C(=O)c3ccccc3F)C3OC(=O)c4ccccc43)sc2c1` (centres undefined), for which the TGI was greater than 100 µM in the experiment on UACC-257 melanoma; 32.8 µM in the experiment with OVCAR-8 ovarian; 33.8 µM in the experiment on SK-MEL-5 melanoma; 38.2 µM in the experiment on HCT-15 colon; 50.1 µM in the experiment on HL-60(TB) leukemia; 77.6 µM in the experiment with OVCAR-4 ovarian. The TGI in the experiment with NCI-H522 lung stood at 27.8 µM.

Consider `CCc1nc(N)c2nc(-c3cccs3)oc2n1`, for which the TGI in the experiment on UACC-257 melanoma, in the experiment with OVCAR-8 ovarian, in the experiment on SK-MEL-5 melanoma, in the experiment with HCT-15 colon, with HL-60(TB) leukemia and with LOX IMVI melanoma was greater than 100 µM each time. Besides, the TGI in the experiment with SF-295 CNS and in the experiment on NCI-H522 lung was greater than 100 µM throughout.

Turning to `C=C1CCC[C@@H](C)C(O)[C@@H]2OC(=O)C(=C)[C@@H]2C[C@@H](OC(C)=O)[C@@]2(C)CC[C@@H]1O2` (some centres undefined), the TGI with UACC-257 melanoma was found to be 15.2 µM; in the experiment with OVCAR-8 ovarian, 16.4 µM; in the experiment with SK-MEL-5 melanoma it was 13.7 µM; with HCT-15 colon, 10.6 µM; in the experiment with OVCAR-4 ovarian it was 36.7 µM; in the experiment on SF-295 CNS, 38.5 µM. The molecule also had a TGI with NCI-H522 lung of 4.93 µM.

In the case of `CC(=O)CC1(CBr)Nc2ccc([N+](=O)[O-])cc2NC1=O` (centres undefined), the TGI in the experiment on UACC-257 melanoma, in the experiment on OVCAR-8 ovarian, with SK-MEL-5 melanoma, in the experiment with HCT-15 colon, in the experiment with MALME-3M melanoma and in the experiment with OVCAR-4 ovarian was greater than 100 µM each time. For the same molecule, the TGI with LOX IMVI melanoma was greater than 100 µM; with SF-295 CNS, greater than 100 µM; with NCI-H522 lung it was 41.6 µM.

Take `O=P1(N(CCCl)CCCl)Oc2ccc(Cl)cc2C(C(Cl)(Cl)Cl)c2cc(Cl)ccc2O1` (centres undefined): the TGI in the experiment with UACC-257 melanoma was greater than 100 µM; with OVCAR-8 ovarian, greater than 100 µM; with SK-MEL-5 melanoma, 24 µM; in the experiment on HCT-15 colon, 23.5 µM; with HL-60(TB) leukemia, greater than 100 µM; in the experiment with OVCAR-4 ovarian it was greater than 100 µM. Besides, the TGI in the experiment with LOX IMVI melanoma is 28.7 µM; in the experiment with SF-295 CNS, 23.7 µM; with NCI-H522 lung it was 42.9 µM.

On to `CCCCCC[C@H]([C@H](C)O)n1cnc2c(N)ncnc21`, for which the TGI in the experiment with UACC-257 melanoma, in the experiment on OVCAR-8 ovarian, with SK-MEL-5 melanoma, with HCT-15 colon, in the experiment on HL-60(TB) leukemia and in the experiment with MALME-3M melanoma was greater than 100 µM throughout. The TGI in the experiment on OVCAR-4 ovarian, in the experiment on LOX IMVI melanoma and in the experiment with SF-295 CNS was greater than 100 µM in each case.
